Laboratory results: patent US7205382B2, “Peptides, the production and use thereof for binding immunoglobulins” (Fresenius Medical Care Affina GmbH, priority 2000, dated 2007)
Bridge positions count the residues as written; N and C are the ends. Square brackets hold non-standard residues; d marks the D form. Ends that are not written are not given here. cellulose = not defined here; βAla = NCCC(=O)O

Key:
[1] = test system: immunoglobulins from human plasma; test: Affinity chromatography of human plasma on peptide-sepharose matrices, binding capacity for immunoglobulins; conditions: 6 volume fractions per column volume, 80 cm/h, elution pH 2.8
Method: For immobilization to a solid phase, the peptides were dissolved in coupling buffer (30% (v/v) acetonitrile, 0.5 M NaCl, 0.1 M NaHCO3, pH 8.3) to a concentration of 1 mg/ml and mixed with washed and CNBr-preactivated sepharose 4B at a volume ratio of 10:1. After completion of the coupling reaction, the peptide. matrices were washed with coupling buffer, and the excess CNBr groups were inactivated by incubation of the matrix in Tris buffer (100 mM Tris-HCl, 500 mM NaCl, pH 8.0).
The peptide loadings of the matrices were determined by photometry (A280 nm) by establishing the difference between the peptide mass employed before coupling and the non-immobilized peptide mass after coupling.
The peptide matrices were tested by means of affinity chromatography for their binding capacity and binding specificity for immunoglobulins with human plasma as a sample. Thus, 6 volume fractions of human plasma as the sample was passed through 1 column volume fraction of peptide matrix at a linear flow rate of 80 cm/h.
Prior to sample application, the affinity-chromatographic column was equilibrated with PBS, pH 7.2. […]
The determination of the concentration of the eluted protein was effected by photometric measurement of the adsorption at 280 nm. The immunoglobulin concentration was calculated therefrom with ε280 nm=1.35 cm^2/mg for IgG.

human IgG-Fc = test: Cellulose-immobilized 13-mer peptide variants incubated with human IgG-Fc, anti-human IgG-AP detection; format: binding; set-up: key: No binding of immunoglobulin for the defined peptide variant, detection negative: 0; Binding of immunoglobulin for the defined peptide variant, detection positive: +; conditions: IgG-Fc 1 μg/ml in blocking buffer, 3 h room temperature
In short: (§1)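 Peptides on cellulose via a (βA)(βA) spacer were blocked in T-TBS (pH 8.0) with 5% saccharose and 4% BSA, then exposed for 3 h at room temperature to IgG-Fc (1 μg/ml), serum diluted 1:10,000, or blocking buffer alone. Bound IgG was detected with AP-anti-human IgG (1.2 μg/ml) and NBT/BCIP colour development.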

[2] = test system: immunoglobulins in human plasma; test: Cellulose-immobilized 13-mer peptide variants incubated with human plasma, anti-human IgG-AP detection; format: binding; set-up: key: No binding of immunoglobulin for the defined peptide variant, detection negative: 0; Binding of immunoglobulin for the defined peptide variant, detection positive: +; conditions: human plasma as sample, diluted 1:10,000 in blocking buffer, 3 h room temperature
In short: as §1

serum albumin = test: Cellulose-immobilized 13-mer peptide variants incubated with serum albumin (negative control), anti-human IgG-AP detection; format: binding; set-up: key: No binding of immunoglobulin for the defined peptide variant, detection negative: 0; Binding of immunoglobulin for the defined peptide variant, detection positive: +; conditions: blocking buffer without addition, 3 h room temperature
In short: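 Spot membrane, (βA)(βA) spacer; T-TBS pH 8.0 wash, block 5% saccharose/4% BSA. 3 h RT with IgG-Fc 1 μg/ml, serum 1:10,000, or block buffer only (specificity control). 3× wash, AP-anti-human IgG 1.2 μg/ml, NBT/BCIP in pH 9.5 buffer.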

Row | Rel. capacity: mg of bound protein/mg of peptide matrix loading [1] | Volume capacity: mg of bound protein/ml of peptide matrix [1] | Result for incubation with human IgG-Fc (immunoglobulin binding detection) (human IgG-Fc) | Result for incubation with human plasma (immunoglobulin binding detection) [2] | Result for incubation with serum albumin (immunoglobulin binding detection) (serum albumin) | Substance
1 | 0.53 mg/mg | 4.70 mg/mL | – | – | – | acetyl-D-S-A-W-H-L-G-E-L-V-W-C-T-((βA)(βA)K) (Ac-DSAWHLGELVWCT[βAla][βAla]K; also: immobilized on sepharose 4B) [Peptide matrix A1]
2 | – | – | 0 | 0 | 0 | 09N: cellulose-bound 13-mer variant DCAWHLGENVWCT-(βA)(βA) (DCAWHLGENVWCT-{βAla-βAla-cellulose}; disulfide 2-12 (inferred); reading uncertain; also: printed as DCAWHLGENVWCT-(βA)(βA))
